Experimental data: patent US8551963B2, “Imidazolothiazole compounds and methods of use thereof” (Ambit Biosciences Corporation, priority 2008, dated 2013)
pEC50, pIC50, pKd, pKi: −log10 of the molar value. “Also recorded” adds a separate entry of the source. Where two headings read alike, the source gives them in different places.

Experiments:
FLT3 (D835Y) = FLT3 (D835Y) (Homo sapiens (Human), UniProt P36888, D835Y); assay: biochemical; format: binding
Experimental: (§2) Competition binding assays used herein were developed, validated and performed as described in Fabian et al., Nature Biotechnology 2005, 23, 329-336. Kinases were produced as fusions to T7 phage (See, Fabian et al. or WO04/015142) or alternatively, the kinases were expressed in HEK-293 cells and subsequently tagged with DNA for PCR detection (See, WO08/005,310). […] The liganded beads were blocked with excess biotin and washed with blocking buffer (SeaBlock (Pierce), 1% BSA, 0.05% Tween 20, 1 mM DTT) to remove unbound ligand and to reduce non-specific binding. […] Test compounds were prepared as 100× stocks in DMSO and rapidly diluted into the aqueous environment. DMSO was added to control assays lacking a test compound. […] The kinase concentration in the eluates was measured by quantitative PCR. Each kinase was tested individually against each compound. Kds were determined using eleven serial threefold dilutions.

hERG channel = hERG channel (Homo sapiens (Human), UniProt Q12809); assay: hERG channel inhibition, whole cell recordings in CHO cells; conditions: 10 μM
Chain of hERG channel (Q12809 whole entry): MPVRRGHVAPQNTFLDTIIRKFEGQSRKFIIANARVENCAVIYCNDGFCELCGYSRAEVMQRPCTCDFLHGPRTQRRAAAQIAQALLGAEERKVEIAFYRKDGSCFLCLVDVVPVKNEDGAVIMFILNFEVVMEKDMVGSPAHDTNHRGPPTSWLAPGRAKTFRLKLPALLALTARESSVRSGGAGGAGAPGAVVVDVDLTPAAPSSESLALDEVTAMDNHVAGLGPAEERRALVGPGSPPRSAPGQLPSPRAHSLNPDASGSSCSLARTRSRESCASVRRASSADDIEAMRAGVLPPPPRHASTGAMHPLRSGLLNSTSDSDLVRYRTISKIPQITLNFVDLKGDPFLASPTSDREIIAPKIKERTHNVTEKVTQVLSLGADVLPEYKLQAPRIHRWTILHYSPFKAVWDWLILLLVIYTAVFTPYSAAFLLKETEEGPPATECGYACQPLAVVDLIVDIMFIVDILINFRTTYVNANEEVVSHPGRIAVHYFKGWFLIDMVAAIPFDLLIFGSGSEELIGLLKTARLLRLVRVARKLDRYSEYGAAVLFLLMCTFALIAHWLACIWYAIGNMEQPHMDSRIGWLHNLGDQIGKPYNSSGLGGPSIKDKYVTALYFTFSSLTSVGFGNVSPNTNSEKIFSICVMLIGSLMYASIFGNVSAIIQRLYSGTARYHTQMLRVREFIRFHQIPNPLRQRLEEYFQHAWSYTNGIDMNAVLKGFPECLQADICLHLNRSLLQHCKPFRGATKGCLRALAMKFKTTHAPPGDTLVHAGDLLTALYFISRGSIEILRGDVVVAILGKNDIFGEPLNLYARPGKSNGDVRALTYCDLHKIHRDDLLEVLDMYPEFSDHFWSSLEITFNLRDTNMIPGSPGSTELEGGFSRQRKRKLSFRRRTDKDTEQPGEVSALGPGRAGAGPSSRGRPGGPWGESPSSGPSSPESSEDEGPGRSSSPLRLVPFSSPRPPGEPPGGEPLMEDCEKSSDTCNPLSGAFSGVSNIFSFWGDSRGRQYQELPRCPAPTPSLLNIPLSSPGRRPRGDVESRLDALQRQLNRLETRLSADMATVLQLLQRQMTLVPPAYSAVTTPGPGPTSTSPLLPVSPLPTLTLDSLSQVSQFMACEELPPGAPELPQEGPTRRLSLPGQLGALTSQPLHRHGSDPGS
Experimental: Test articles in this study were therefore characterized to determine their ability to inhibit the hERG channel. Ion channel activity was measured using a stably transfected Chinese Hamster Ovary (CHO) cell line expressing the hERG mRNA.
A CHO cell line stably expressing hERG channels was obtained from Aviva Systems Biology LLC and used for the study. Cells were cultured in DMEM/F12 containing 10% FBS, 1% penicillin/streptomycin and 500 μg/ml G418. Before testing, cells were harvested using Accumax (Innovative Cell Technologies).
Whole cell recordings were performed using PX 7000A (Axon Instruments) with AVIVA's SealChip™ technology. Cells were voltage clamped at a holding potential of −80 mV. The hERG current was then activated by a depolarizing step to −50 mV for 300 ms. This first step at −50 mV was used as a baseline for measuring peak amplitude of the tail current. Next, a voltage step to +20 mV was applied for 5 s to activate the channels. Finally a step back to −50 mV for 5 s removed activation and the deactivating tail current was recorded.
All compounds were prepared from either 10 or 30 mM DMSO stock solutions. Solutions were mixed by sonication for 20 min, followed by vigorous vortexing. […]
After achieving whole cell configuration, cells were monitored for 90 s to assess stability and then washed with External Solution for 66 s. […]

FLT3 (D835H) = FLT3 (D835H) (Homo sapiens (Human), UniProt P36888, D835H); assay: biochemical; format: binding
Experimental: as §2

RS4;11 cells = assay: RS4;11 cellular proliferation assay (Cell Titer Blue); format: cell-based; conditions: Homo sapiens, RS4-11, 48 h, read-out: EC50 (50% inhibition of cellular proliferation)
Experimental: (§3) Cells were cultured overnight in low serum media with 0.5% FBS. The following day, cells were seeded on to a 96-well plate at 40,000 cells per well at a volume of 100 μL per well.
(§4) CTB reagent was thawed in a 37° C. water bath. 40 μL of CTB reagent was added to the plate containing the cells, and the cells were incubated with the reagent at 37° C. in 5% CO2 for 3 hours. The absorbance was measured at 560 nm (excitation)/590 nm (emission) using Spectramax Plus 384 Absorbance Microplate Reader by Molecular Devices.

CYP1A2 = CYP1A2 (Homo sapiens (Human), UniProt P05177); assay: Cyp enzyme inhibition assay in human liver microsomes, CYP1A2; format: in vitro ADME; conditions: CYP1A2, substrate phenacetin
Chain of CYP1A2 (P05177 whole entry): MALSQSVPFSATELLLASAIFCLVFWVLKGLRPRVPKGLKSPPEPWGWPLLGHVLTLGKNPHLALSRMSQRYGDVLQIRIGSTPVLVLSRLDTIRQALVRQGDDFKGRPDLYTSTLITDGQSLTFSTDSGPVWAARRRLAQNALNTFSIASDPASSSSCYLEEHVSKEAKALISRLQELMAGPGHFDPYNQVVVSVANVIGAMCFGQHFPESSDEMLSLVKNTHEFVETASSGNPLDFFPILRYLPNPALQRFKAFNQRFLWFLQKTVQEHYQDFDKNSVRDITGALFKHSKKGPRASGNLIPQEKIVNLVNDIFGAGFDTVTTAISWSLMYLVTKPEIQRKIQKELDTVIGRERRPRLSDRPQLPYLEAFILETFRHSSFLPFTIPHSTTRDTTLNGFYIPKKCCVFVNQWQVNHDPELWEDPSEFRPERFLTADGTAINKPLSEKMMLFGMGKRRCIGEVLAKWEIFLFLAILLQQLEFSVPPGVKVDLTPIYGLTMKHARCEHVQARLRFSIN
Experimental: (§1) The ability of the compound I-1 to inhibit human metabolizing enzymes CYP3A4, CYP2C9, […], CYP2C19 and CYP1A2, was assessed using those enzymes found collectively in human liver microsomes. The test compound I-1 was prepared as a solution in DMSO or acetonitrile and plated in duplicate rows of a 96-well plate (Nunc) for a final assay concentration of 40 μM in 0.2% DMSO (or 2% acetonitrile) in the first column and serially diluted two-fold going down the row. A known selective inhibitor of a given CYP enzyme listed in Table 8 was selected as the appropriate positive control. For each CYP enzyme inhibition assay, an appropriate enzyme-substrate mixture was prepared to afford a final assay concentration of 75 mM KPO4/pH 7.4, 6.5 mM MgCl2, 0.25 mg/mL pooled male and female human liver microsome (CellzDirect lot HMMC-PL020) with the amounts of the appropriate substrate for each CYP enzyme assay given in Table 8. The enzyme-substrate mixture was added to columns 1 through 10 and column 11 served as a negative control with enzyme solution lacking substrate. A solution of NADPH (Calbiochem) was then added to all rows except for one where NADPH would be added after the incubation period, in order to detect NADPH-independent non-CYP-mediated metabolism. The plate was briefly vortexed and left to shake in a 37° C. water bath for 20 minutes. […]

CYP2C19 [1] = biological target: T1, CYP2C19 (Homo sapiens (Human), UniProt P33261); assay: Cyp enzyme inhibition assay in human liver microsomes, CYP2C19; format: in vitro ADME; conditions: CYP2C19, substrate mephenytoin
T1 sequence (P33261 whole entry): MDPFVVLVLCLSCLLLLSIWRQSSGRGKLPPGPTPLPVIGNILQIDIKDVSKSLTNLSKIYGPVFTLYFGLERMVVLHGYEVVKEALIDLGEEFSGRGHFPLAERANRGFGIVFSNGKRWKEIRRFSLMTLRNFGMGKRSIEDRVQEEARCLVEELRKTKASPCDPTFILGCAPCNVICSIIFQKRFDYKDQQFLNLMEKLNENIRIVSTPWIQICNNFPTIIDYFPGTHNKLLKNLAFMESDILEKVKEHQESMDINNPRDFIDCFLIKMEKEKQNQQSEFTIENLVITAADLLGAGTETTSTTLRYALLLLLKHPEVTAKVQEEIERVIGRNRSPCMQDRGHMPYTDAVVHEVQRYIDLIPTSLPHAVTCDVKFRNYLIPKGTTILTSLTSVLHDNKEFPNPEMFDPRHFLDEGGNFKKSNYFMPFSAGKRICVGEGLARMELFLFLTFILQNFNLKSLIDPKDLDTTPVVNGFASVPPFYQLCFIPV
Experimental: as §1

MV4;11 cells = assay: MV4;11 cellular proliferation assay (Cell Titer Blue); format: cell-based; conditions: Homo sapiens, MV4-11, 72 h, read-out: EC50 (50% inhibition of cellular proliferation)
Experimental: as §3, §4

plasma protein = assay: Plasma protein binding assay (equilibrium dialysis); format: in vitro ADME; conditions: 1 μM, equilibrium dialysis 16-20 hours at 37° C.
Experimental: Reagents: 1× Isotonic PBS (Mediatech, Inc., Herndon, Va.); 96 Well Equilibrium Dialyzer (Harvard Apparatus, Holliston, Mass.) and Animal plasma from species of interest.
1 μM solutions of test compound were prepared in both isotonic PBS and 10% animal plasma in isotonic PBS.
200 μl of each test solution was added to opposite sides of the equilibrium dialysis membrane.
Samples were incubated for 16-20 hours at 37° C.
After incubation, 100 μl sample was removed from the PBS side and diluted with 100 μl of 20% animal plasma in PBS.
100 μl sample was removed from the 10% animal plasma side and diluted with 100 μl of 10% animal plasma.
A calibration curve was prepared in 10% animal plasma to extrapolate unknown concentrations.
Samples were analyzed by LC/MS/MS.
50 μl of samples, calibration standards and quality control standards were extracted with 100 μl of acetonitrile containing 25 ng/ml of internal standard.
Calculations Calculate fraction unbound in 10% plasma Fu(10%)=1−(PC−PF)/PC) Convert 10% plasma value to 100% Fu(100%)=Fu10%/(10−9*Fu10%).

CYP2C19 [2] = biological target: T1, CYP2C19; assay: Inhibitory constant KI in human liver microsomes, CYP2C19; format: in vitro ADME; conditions: for pKi: CYP2C19, global non-linear regression
Experimental: A 2 mM stock of Compound I-1 was prepared in acetonitrile (ACN) and serially diluted 2-fold from 2000 μM to 15.63 μM in ACN. […] Individual human liver microsome preparations containing the substrate were then incubated with Compound I-1 (final concentration range 40 μM to 0.31 μM of Compound I-1) for a final incubation concentration of 0.5 mg/mL microsome, 75 mM KPO4, 6.5 mM MgCl2, 1 mM NADPH and 2% acetonitrile (ACN). The samples were incubated in a 37° C. shaking water bath for 20 minutes then quenched with ACN:water (75:25) containing internal standards propranolol at 0.3 ng/mL and cortisone at 0.3 ng/mL. After brief mixing, the plate was centrifuged and the supernate removed for analysis by LC/MS/MS (API 4000 Qtrap) for formation of 6-hydroxy-testosterone (CYP3A4), 4-hydroxy-mephenyloin (CYP2C19) or hydroxy-taxol (CYP2C8). The data was analyzed using global non-linear regression software (GraphPad Prism) and the overall fit of the data (R^2) was used to determine if Compound I-1 was a competitive, non-competitive, or uncompetitive inhibitor. In addition the data was plotted as a Lineweaver-Burke graph (1/V versus 1/S, where V is the […] and S is the substrate concentration) for each inhibitor concentration. Based on the location of convergence (competitive and non-competitive) or non convergence (uncompetitive) of the plots at each inhibitor concentration, the type of inhibition was determined.
Global non-linear regression allows analysis of all the individual inhibitor curves simultaneously and determines the best fit value for shared parameters between the data sets, in this case KI (or KI′). The results of the global nonlinear analysis of Compound I-1 inhibition of the CYP450 isoforms 3A4, 2C19 and 2C8 are shown in Table 12.

CC(C)(CO)c1cc(NC(=O)Nc2ccc(-c3cn4c(n3)sc3cc(OCCN5CCOCC5)ccc34)cc2)no1 [Compound I-1, 1-[5-(2-hydroxy-1,1-dimethyl-ethyl)-isoxazol-3-yl]-3-{4-[7-(2-morpholin-4-yl-ethoxy)-benzo[d]imidazo[2,1-b]thiazol-2-yl]-phenyl}-urea]
pKd (FLT3 (D835Y)): 8.26
% Block Trial 1 (hERG channel): <10%
% Block Trial 2 (hERG channel): <10%
pKd (FLT3 (D835H)): 8.72
pEC50 (RS4;11 cells): 8.70
pIC50 (CYP1A2): < 4.40
pIC50 (CYP2C19 [1]): 4.81
pEC50 (MV4;11 cells): 9.52
Percentage of unbound compound in 10% plasma (plasma protein): 42.5%
Type of inhibition (CYP2C19 [2]; CYP2C19): non-competitive inhibition; also recorded: weak non-competitive inhibitor
pKi (CYP2C19 [2]; read-out: Best Fit KI, Competitive): 5.77
pKi (CYP2C19 [2]; read-out: Best Fit KI, Non-competitive): 4.98
pKi (CYP2C19 [2]; read-out: Best Fit KI′, Uncompetitive): 5.13
